Source: article PMC6305398, “Red Fluorescent Chlamydia trachomatis Applied to Live Cell Imaging and Screening for Antibacterial Agents” (Frontiers in Microbiology, 2018)
Values after ≈ are worked out from the molar mass of the structure shown. Read-outs that look alike come from different tables or passages of the source.

Key:
[1] = tested on: mCherry expressing C. trachomatis serovar L2 454/Bu; assay: Primary screen of natural compound library, Chlamydia inclusion count (mCherry imaging and FITC immunostaining in duplicate plates); format: cell-based, Chlamydia trachomatis; settings: for inhibition at 10 µM: Chlamydia trachomatis, 48 hpi, HeLa cells, vs DMSO control
Experimental: A general and more detailed protocol for the screening assay is provided in (Supplementary Data Sheet 1) and an overview of the screening method is given in Figure 3. Since inhalation of C. trachomatis aerosols can cause laboratory acquired infections (Sewell, [1995]), all procedures involving handling of live infection in open plates were performed manually inside a class II safety cabinet using 8-channel electronic pipets (Rainin E4 XLS, Mettler Toledo, Barcelona, Spain) and an enclosed aspiration system (Intergra VacuSafe, Zizers, Switzerland).
The primary screen of the 349 open access compound library was performed using the mCherry expressing C. trachomatis serovar L2 454/Bu in clear, flat 96-well plates (Nunc, Delta surface, Thermo Fischer Scientific). The primary screen was done in duplicates in separated plates; one plate was used for mCherry imaging and the other for FITC immunostaining. Cells were seeded at a density of 10,000 cells per well in 100 μl DMEM media 1 day prior to infection in culture media. Chlamydia infection was performed in 30 μl HBSS as described above with a MOI of 0.6 during 1 h at 37°C, 5% CO2. Compounds were diluted to 10 μM in DMEM with a final DMSO concentration of 0.5% and 100 μl per well was added after aspiration of HBSS. The plates were incubated for an additional 47 h at 37°C, 5% CO2 prior to imaging. One of the duplicate plates was used for mCherry imaging and one for FITC immunostaining. For mCherry imaging, HeLa cell nuclei were first stained by addition of 10 μl […] Hoechst per well and incubated at 37°C with 5% CO2 for 20 min. The infected cells were fixed in 4% paraformaldehyde (PFA) for 15 min and washed in PBS before image acquisition. Although fixation was not necessary for the analysis, it inactivated the infectious Chlamydia and enabled later analysis after storage at 4°C. For FITC immunostaining, cells were fixed in 150 μl methanol per well for 10 min, blocked in 1% BSA, 0.25% Tween-20 in PBS and incubated with 1:1,000 polyclonal rabbit anti-chlamydial serum in blocking buffer (Marwaha et al., [2014]). A FITC-conjugated donkey anti-rabbit antibody (Jackson ImmunoResearch) and 1 μg/ml Hoechst staining was used for staining followed by washing with blocking buffer. Images of nuclei (Hoechst-ex386/23 nm) and Chlamydia inclusions (FITC: ex485/20 nm; mCherry: ex549/15 nm) were acquired in the ArrayScan with the 10x objective and counted with the built in software. Chlamydia inclusions in DMSO control wells were used to determine an inclusion size cutoff to exclude small underdeveloped inclusions as well as fluorescent artifacts from the analyses.

in vitro = format: cell-based; settings: human, 48 h, percent of DMSO control; for viability at 25 µM: read-out: HeLa cell viability at 25 μM (%); for viability at 50 µM: read-out: HeLa cell viability at 50 μM (%) (converted)
Experimental: (§1) HeLa299 cells were inoculated into clear, flat 96-well plates (Nunc, Delta surface, Thermo Fischer Scientific) with a density of 7,000 cells per well and cultured overnight at 37°C with 5% CO2 in […] supplemented with 10% FBS and 2 mM L-glutamine. The following day, the RPMI was replaced with DMEM without phenol red (Life Technologies, Carlsbad, CA, USA) containing 0.5% DMSO with or without test compounds at 25 and 50 μM concentrations incubated at 37°C with 5% CO2 for 48 h. At least three replicate wells for each compound concentration were tested. Wells without cells were used as blank controls. Following this incubation with compounds, cells were washed with DMEM to remove remaining colored compounds and fresh DMEM without phenol red was added before the XTT Cell Proliferation Assay kit was used according to the manufacturer's instructions (ATCC, Manassas, VA, USA). Briefly, activation reagent and XTT reagent were thawed at 37°C, then mixed in a 1:50 ratio with enough volume to add 50 μL to each well. The plates were placed in the 37°C incubator for 2.5 h. The absorbance of each well was then read at 475 nm and 660 nm with a Tecan Infinite m200 plate reader (Tecan, Männedorf, Switzerland). To analyze the data, the 660 nm reading was subtracted from the 475 nm reading to help eliminate non-specific readings from the assay results. Average blank control-well readings were subtracted from those containing cells. Final readings from wells containing compound were compared to DMSO control wells and expressed as percent of control.

HeLa cells = assay: in vitro; format: cell-based
Experimental: as §1

[2] = ref Davis et al., 2013; cited from earlier work
Trypanosoma brucei = settings: ref Zulfiqar et al., 2017; cited from earlier work
T. cruzi = settings: ref Zulfiqar et al., 2017; cited from earlier work
mammalian cells = settings: cited from earlier work
Staphylococcus aureus = settings: ref Beattie et al., 2016; cited from earlier work
[3] = tested on: Plasmodium falciparum parasites; settings: antimalarial activity; ref Choomuenwai et al., 2012; cited from earlier work
[4] = MOI 0.6, FITC immunostaining, read-out: Screen inhibition at 10 μM (%) FITC
[5] = MOI 0.6, mCherry detection, read-out: Screen inhibition at 10 μM (%) mCherry

| SMILES | inhibition at 10 µM [1, 4] | inhibition at 10 µM [1, 5] | viability at 25 µM (in vitro) | viability at 50 µM (in vitro) | Toxicity to HeLa cells (authors' call) (HeLa cells; non-toxic = viability not below 70% of vehicle control at 25 μM) | In vitro antimalarial effect, active concentrations [2] | Inhibition of Trypanosoma brucei, active concentrations (Trypanosoma brucei) | Inhibition of T. cruzi, active concentrations (T. cruzi) | Toxicity in mammalian cells (mammalian cells; ref Davis et al., 2013) | Inhibition of Chlamydia growth ([1]; screen at 10 μM) | Reduction of HeLa cell viability (HeLa cells; 25 μM) | minimum inhibitory concentration (MIC) (Staphylococcus aureus) | IC50 [3] | Toxic effects on mammalian cells (mammalian cells; ref Choomuenwai et al., 2012, Wang et al., 2015) |
| --- | --- | --- | --- | --- | --- | --- | --- | --- | --- | --- | --- | --- | --- | --- |
| NCCc1c[nH]c2c1C(=O)C1=C(NC=CS1(=O)=O)C2=O [Compound 10, thiaplakortone A] | 96% | 100% | 5 ± 0.4% | 5 ± 0.5% | toxic | low nanomolar concentrations | low micromolar concentrations | low micromolar concentrations | moderate toxicity | – | – | – | – | – |
| COC1=CC(=O)c2c(O)c3c(c(O)c2C1=O)C[C@](C)(O)C[C@@H]3O [Compound 5, (1S,3S)-austrocortirubin] | 0% | 13% | 5 ± 0.5% | 5.5% | – | – | – | – | – | did not inhibit Chlamydia growth | 95% | 100 µM (≈ 32 µg/mL) | 1.9 µM | toxic effects |
